According to patent US7247756B2, “1,4-disubstituted benzenes as insecticides” (Bayer CropScience AG, priority 2000, dated 2007):
Several values for one entry are separate records, joined by “and”; a condition that tells them apart may be missing. Identical values can stand only once.

Tested on: tobacco budworm (Heliothis virescens [Fabricius])
Experiment: surface-treated diet test against tobacco budworm
Assay type: in vivo
Details: second instar larvae, five-day exposure
Description: Candidate insecticides are evaluated for activity against the tobacco budworm (Heliothis virescens [Fabricius]) in a surface-treated diet test.
In this test one mL of molten (65–70° C.) wheat germ-based artificial diet is pipetted into each well of a four by six (24 well) multi-well plate (ID#430345-15.5 mm dia.×17.6 mm deep; Corning Costar Corp., One Alewife Center, Cambridge, Mass. 02140). The diet is allowed to cool to ambient temperature before treatment with candidate insecticide.
For a determination of insecticidal activity, solutions of the candidate insecticides are prepared for testing using a Packard 204DT Multiprobe® Robotic System (Packard Instrument Company, 800 Research Parkway, Meriden, Conn. 06450), in which the robot first dilutes a standard 50 millimolar DMSO solution of candidate insecticide with a 1:1 water/acetone solution (V/V) in a ratio of 1:7 stock solution to water/acetone. The robot subsequently pipettes 40 microliters of the so-prepared solution onto the surface of the diet in each of three wells in the 24 multi-well plate. The process is repeated with solutions of seven other candidate insecticides. Once treated, the contents of the multi-well plate are allowed to dry, leaving 0.25 millimoles of candidate insecticide on the surface of the diet, or a concentration of 0.25 millimolar. Appropriate untreated controls containing only DMSO on the diet surface are also included in this test.
For evaluations of the insecticidal activity of a candidate insecticide at varying rates of application, the test is established as described above using sub-multiples of the standard 50 millimolar DMSO solution of candidate insecticide. For example, the standard 50 millimolar solution is diluted by the robot with DMSO to give 5, 0.5, 0.05, 0.005, 0.0005 millimolar, or more dilute solutions of the candidate insecticide. In these evaluations there are six replicates of each rate of application placed on the surface of the diet in the 24 multi-well plate, for a total of four rates of application of candidate insecticide in each plate.
In each well of the test plate is placed one second instar tobacco budworm larvea, each weighing approximately five milligrams. After the larvae are placed in each well, the plate is sealed with clear polyfilm adhesive tape. The tape over each well is perforated to ensure an adequate air supply. The plates are then held in a growth chamber at 25° C. and 60% relative humidity for five days (light 14 hours/day).
After the five-day exposure period insecticidal activity for each rate of application of candidate insecticide is assessed as percent inhibition of insect weight relative to the weight of insects from untreated controls, and percent mortality when compared to the total number of insects infested.

[1] = rate of application 4.6 (negative log of the molar concentration of test compound in the diet)
[2] = rate of application 5.6 (negative log of the molar concentration of test compound in the diet)
[3] = rate of application 6.6 (negative log of the molar concentration of test compound in the diet)
[4] = rate of application 3.6 (negative log of the molar concentration of test compound in the diet)

CCN(CC)CCOc1ccc(COCc2ccc(Cl)c3ccccc23)cc1 [Compound 8, (2-(4-(((4-chloronaphthyl)methoxy)methyl)phenoxy)ethyl)diethylamine]
Percent Growth Inhibition [1]: 11%

CCN(CC)CCOc1ccc(CNc2ccc(Cl)c3ccccc23)cc1 [Compound 84, (2-(4-(((4-chloronaphthyl)amino)methyl)phenoxy)ethyl)diethylamine]
Percent Growth Inhibition [2]: 11%

CC1CCCC(C)N1CCOc1ccc(COc2ccc(Cl)c3ccccc23)cc1 (stereo not drawn) [Compound 106, 1-(2-(2,6-dimethylpiperidyl)ethoxy)-4-((4-chloronaphthyloxy)methyl)benzene]
Percent Growth Inhibition [3]: 35%

CCN(CC)CCOc1ccc(COc2ccc(Cl)c3cc(Cl)ccc23)cc1 [Compound 216, (2-(4-((4,6-dichloronaphthyloxy)methyl)phenoxy)ethyl)diethylamine]
Percent Growth Inhibition [3]: 1%

CCN(CC)CCOc1ccc(COc2cccc3c(Cl)c(Cl)ccc23)cc1 [Compound 223, (2-(4-((5,6-dichloronaphthyloxy)methyl)phenoxy)ethyl)diethylamine]
Percent Growth Inhibition [3]: 63%

CCN(CC)CCOc1ccc(CNc2ccc(Cl)c3ccccc23)cc1OC [Compound 263, (2-(4-(((4-chloronaphthyl)amino)methyl)-2-methoxyphenoxy)ethyl)diethylamine]
Percent Growth Inhibition [2]: 26%

CCN(CC)CCOc1ccc(COc2ccc(Cl)c(Cl)c2Cl)cc1 [Compound 308, diethyl(2-(4-((2,3,4-trichlorophenoxy)methyl)phenoxy)ethyl)amine]
Percent Growth Inhibition [2]: 18%

CCN1CCN(c2ccc(COc3cccc4c(Cl)c(Cl)ccc34)cc2)CC1 [Compound 355, 1,2-dichloro-5-{[4-(4-ethylpiperazinyl)phenyl]methoxy}naphthalene]
Percent Growth Inhibition [4]: 100%
Percent Mortality [4]: 100%
Percent Growth Inhibition [1]: 100%
Percent Mortality [1]: 100%
Percent Growth Inhibition [2]: 96%
Percent Mortality [2]: 17%
Percent Growth Inhibition [3]: −2%

amino(2-(4-((5,6-dichloronaphthyloxy)methyl)phenoxy)ethyl)diethyl-1-one [Compound 183]
Percent Growth Inhibition [3]: 28% and 18%
